Source: ChEMBL document CHEMBL5244235, “Diarylpentanoids with antitumor activity: A critical review of structure-activity relationship studies” (Eur J Med Chem, 2020)
Blank lines part the entries; values can stand above or below the molecule they belong to.

What was measured:
[1] = tested on: B16; assay: Antiproliferative activity against mouse B16 cells assessed as cell growth inhibition measured after 72 hrs by MTT assay; assay type: functional, cell-based; conditions: B16, 72 h
[2] = tested on: L1210; assay: Antiproliferative activity against mouse L1210 cells assessed as cell growth inhibition measured after 72 hrs by MTT assay; assay type: functional, cell-based; conditions: L1210, 72 h
[3] = Antiproliferative activity against human Panel NCI-58 (58 carcinoma cell lines) assessed as cell growth inhibition; assay type: functional
[4] = tested on: GCIY; assay: Antiproliferative activity against human GCIY cells assessed as cell growth inhibition measured after 72 hrs; assay type: functional, cell-based
[5] = Antiproliferative activity against human SH-10-TC cells assessed as cell growth inhibition measured after 72 hrs; assay type: functional, cell-based
[6] = tested on: HCT-116; assay: Antiproliferative activity against human HCT-116 cells assessed as cell growth inhibition measured after 72 hrs; assay type: functional, cell-based; conditions: HCT-116, 72 h
[7] = tested on: DLD-1; assay: Antiproliferative activity against human DLD-1 cells assessed as cell growth inhibition measured after 72 hrs; assay type: functional, cell-based; conditions: DLD-1, 72 h
[8] = tested on: A549; assay: Antiproliferative activity against human A549 cells assessed as cell growth inhibition measured after 72 hrs; assay type: functional, cell-based; conditions: A549, 72 h
[9] = tested on: ACHN; assay: Antiproliferative activity against human ACHN cells assessed as cell growth inhibition measured after 72 hrs; assay type: functional, cell-based
[10] = tested on: Huh-7; assay: Antiproliferative activity against human Huh-7 cells assessed as cell growth inhibition measured after 72 hrs; assay type: functional, cell-based; conditions: Huh-7, 72 h
[11] = Antiproliferative activity against human OVK18 cells assessed as cell growth inhibition measured after 72 hrs; assay type: functional, cell-based; conditions: OVK18, 72 h
[12] = tested on: MCF7; assay: Antiproliferative activity against human MCF7 cells assessed as cell growth inhibition measured after 72 hrs; assay type: functional, cell-based; conditions: MCF7, 72 h
[13] = tested on: A-431; assay: Antiproliferative activity against human A-431 cells assessed as cell growth inhibition measured after 72 hrs; assay type: functional, cell-based; conditions: A-431, 72 h
[14] = tested on: HuCCT-1; assay: Antiproliferative activity against human HuCCT-1 cells assessed as cell growth inhibition measured after 72 hrs; assay type: functional, cell-based; conditions: HuCCT-1, 72 h
[15] = tested on: 8505C; assay: Antiproliferative activity against human 8505C cells assessed as cell growth inhibition measured after 72 hrs; assay type: functional, cell-based
[16] = tested on: G-361; assay: Antiproliferative activity against human G-361 cells assessed as cell growth inhibition measured after 72 hrs; assay type: functional, cell-based; conditions: G-361, 72 h
[17] = tested on: PC-3; assay: Antiproliferative activity against human PC-3 cells assessed as cell growth inhibition measured after 72 hrs; assay type: functional, cell-based; conditions: PC-3, 72 h
[18] = Antiproliferative activity against human PK-1 cells assessed as cell growth inhibition measured after 72 hrs; assay type: functional, cell-based; conditions: PK-1, 72 h
[19] = tested on: DLD-1; assay: Antiproliferative activity against human DLD-1 cells assessed as cell growth inhibition measured after 96 hrs; assay type: functional, cell-based; conditions: DLD-1, 96 h
[20] = tested on: B16; assay: Antiproliferative activity against mouse B16 cells assessed as cell growth inhibition; assay type: functional, cell-based
[21] = tested on: L1210; assay: Antiproliferative activity against mouse L1210 cells assessed as inhibition of cell growth; assay type: functional, cell-based
[22] = tested on: NCI-H460; assay: Antiproliferative activity against human NCI-H460 cells assessed as cell growth inhibition measured after 24 hrs by MTT assay; assay type: functional, cell-based; conditions: NCI-H460, 24 h
[23] = tested on: A549; assay: Antiproliferative activity against human A549 cells assessed as cell growth inhibition measured after 24 hrs by MTT assay; assay type: functional, cell-based; conditions: A549, 24 h
[24] = Cytotoxicity activity against mouse SVR cells assessed as cell growth inhibition at 6 ug/ml relative to control; assay type: toxicity, cell-based; conditions: at 6 µg/mL
[25] = Cytotoxicity activity against mouse SVR cells assessed as cell growth inhibition at 3 ug/ml relative to control; assay type: toxicity, cell-based; conditions: at 3 µg/mL

SMILES: CCOc1cc(/C=C2\CN(C)C/C(=C\c3ccc(O)c(OCC)c3)C2=O)ccc1O
GI50 [3]: 1400 nM

SMILES: O=C1/C(=C/c2ccccc2)CCC/C1=C\c1ccccc1 [2,6-DIBENZYLIDENECYCLOHEXANONE]
IC50 [4]: > 50000 nM | IC50 [5]: > 50000 nM | IC50 [6]: > 50000 nM | IC50 [7]: > 50000 nM | IC50 [8]: > 50000 nM | IC50 [9]: > 50000 nM | IC50 [10]: > 50000 nM | IC50 [11]: > 50000 nM | IC50 [12]: > 50000 nM | IC50 [13]: > 50000 nM | IC50 [14]: > 50000 nM | IC50 [15]: > 50000 nM | IC50 [16]: > 50000 nM | IC50 [17]: > 50000 nM | IC50 [18]: > 50000 nM | IC50 [19]: 3000 nM

SMILES: O=C1/C(=C/c2ccccn2)CCC/C1=C\c1ccccn1
inhibition at 6 ug/ml [24]: 96% | inhibition at 3 ug/ml [25]: 90.1%

Further lines, results first:

IC50 [1]: 1600 nM | IC50 [2]: 350 nM
SMILES: O=C1/C(=C/c2ccc([N+](=O)[O-])cc2)CC(c2ccccc2)C/C1=C\c1ccc([N+](=O)[O-])cc1 (centres undefined)

IC50 [20]: 200 nM | IC50 [21]: 300 nM
SMILES: O=C1/C(=C/c2cccc(O)c2)CNC/C1=C\c1cccc(O)c1

IC50 [22]: 2300 nM | IC50 [23]: 5300 nM
SMILES: CCN1C/C(=C\c2ccc(OC)c(OC)c2OC)C(=O)/C(=C/c2ccc(OC)c(OC)c2OC)C1

IC50 [20]: 200 nM | IC50 [21]: 300 nM
SMILES: COc1cc(/C=C2\CNC/C(=C\c3cc(OC)cc(OC)c3OC)C2=O)c(OC)c(OC)c1

IC50 [1]: 510 nM | IC50 [2]: 120 nM
SMILES: COc1cc(/C=C2\CC(c3ccccc3)C/C(=C\c3cc(OC)c(OC)c(OC)c3)C2=O)cc(OC)c1OC (centres undefined)
